Laboratory results as given in patent publication US20140127158A1, “COMBINATION THERAPY FOR HEPATITIS C VIRUS INFECTION” (National Health Research Institute, priority 2012, published 2014).

How the values were obtained:
[1] = system: genotype 1b HCV replicon with NS5A amino acid substitutions; assay: Transient replicon assay, genotype 1b NS5A amino acid substitutions; type: cell-based, Hepatitis C virus; details: for EC50 / EC90: Hepatitis C virus
[2] = system: HCV1b reporter replicon pRS-Luc-HCV1bRep; assay: Transient HCV1b reporter replicon time course (viral translation vs RNA synthesis); type: cell-based, Hepatitis C virus
Experimental: (8) RNA transcription and transient replicon assay. The RNA transcripts were synthesized in vitro using ScaI-digested DNAs and the T7 MegaScript transcription kit (Ambion) according to the manufacturer's directions. A transient replicon assay was performed to quantify the compound-mediated inhibition of viral translation (Dears et al., J Virol 79:4599-609 (2005)). RNA transcripts were transfected into Huh-7.5 cells by electroporation, as described previously. See, e.g., Blight et al., J Virol 76:13001-14 (2002). A specific concentration of DBPR110 or the control medium was added to each well, and the cells were assayed to determine the luciferase activity at 4 h and 72 h post-transfection. […] For quantification of the compound-mediated inhibition, the relative luciferase activity derived from the mock-treated cells was set to 100% (Zou et al., Virology 384:242-52 (2009)).
To distinguish inhibition of viral translation from inhibition of RNA synthesis, the reduction rate of reporter gene expression level was monitored as an indicator of the inhibitory activity of DBPR110. […] The luciferase activity was monitored several times over a period of 72 hours posttransfection. […] The luciferase activity was measured at 4, 8, 24, 48, and 72 hours posttransfection.

HCV genotype 1b replicon = assay: Inhibitor combination study (combination index, CalcuSyn); details: at the concentrations used in the combination experiments
[3] = system: Infectious HCV, Genotype 2a, JFH1; assay: Small molecule inhibition of HCV infectivity (luciferase); type: cell-based, Hepatitis C virus
Description: (5) Small molecule inhibition of HCV infectivity. To quantify the inhibitory effect of DBPR110 on HCV particle formation, HCV replication in DBPR110-treated and untreated cells was quantified using a luciferase activity assay, as described previously. See, e.g., Wakita et al., Nat Med 11:791-6 (2005); and Zhang et al., Antimicrob Agents Chemother 52:666-74 (2008). In vitro-transcribed RNA derived from full-length HCV2a JFH1 infectious cDNA clone with the luciferase reporter gene was delivered to Huh-7.5 cells by electroporation. The cells were seeded at 1×10^5 cells per well in 12-well plates and incubated for 4 h. The medium was then aspirated and replaced with 1 mL of complete medium containing DBPR110 in serial concentration. The plates with compounds were incubated for 72 h and the medium were then used to infect Huh-7.5 cells. Huh-7.5 cells were seeded in 12-well plates (1×10^5 cells/well) in DMEM with 10% FBS for 24 h before infection. The HCV cell culture (HCVcc)-containing supernatant per well was added to the Huh-7.5 cells. After 72 h of incubation at 37° C., the total cell lysate was assayed for luciferase expression (Promega).

[4] = system: genotype 2a HCV replicon with NS5A amino acid substitutions; assay: Transient replicon assay, genotype 2a NS5A amino acid substitutions; type: cell-based, Hepatitis C virus; details: for EC50 / EC90: Hepatitis C virus
[5] = genotype 1b NS5A V153M + M202L + M265V
[6] = genotype 1b NS5A Y93H + V153M + M202L + M265V
[7] = genotype 1b NS5A Y93N + V153M + M202L + M265V

`O=C(N[C@@H](C(=O)N1CCC[C@H]1c1ncc(-c2ccc(-c3ccc(-c4cnc([C@@H]5CCCN5C(=O)[C@H](NC(=O)C5CC5)c5ccccc5)s4)cc3)cc2)s1)c1ccccc1)C1CC1` [DBPR110] was tested, and the EC50 ([1]; genotype 1b NS5A M202L) was 0.0021 ± 0.0006 nM, the EC90 ([1]; genotype 1b NS5A M202L) was 0.005 ± 0.0014 nM and the EC50 ([1]; genotype 1b NS5A M265V) was 0.002 ± 0.0009 nM. For the same molecule, the EC90 ([1]; genotype 1b NS5A M265V) was 0.0051 ± 0.0017 nM, the EC50 ([1]; genotype 1b NS5A P58L) was 0.564 ± 0.194 nM and the EC90 ([1]; genotype 1b NS5A P58L) was 2.73 ± 0.909 nM. For the same molecule, the EC50 ([1]; genotype 1b NS5A P58S) was 0.038 ± 0.014 nM, the EC90 ([1]; genotype 1b NS5A P58S) was 0.064 ± 0.011 nM and the EC50 ([1]; genotype 1b NS5A P58T) was 0.243 ± 0.04 nM. It also gave an EC90 ([1]; genotype 1b NS5A P58T) of 1.3 ± 0.219 nM, an EC50 ([1]; genotype 1b NS5A Parental) of 0.0015 ± 0.0006 nM and an EC90 ([1]; genotype 1b NS5A Parental) of 0.0042 ± 0.0021 nM. For the same molecule, the EC50 ([1]; genotype 1b NS5A V153M) was 0.0013 ± 0.0005 nM, the EC90 ([1]; genotype 1b NS5A V153M) was 0.0041 ± 0.0019 nM and the EC50 [1, 5] was 0.0011 ± 0.0005 nM. The EC90 [1, 5] was 0.0031 ± 0.0011 nM, the EC50 ([1]; genotype 1b NS5A Y93C) was 0.078 ± 0.04 nM and the EC90 ([1]; genotype 1b NS5A Y93C) was 0.177 ± 0.062 nM. For the same molecule, the EC50 ([1]; genotype 1b NS5A Y93H) was 1.41 nM, the EC90 ([1]; genotype 1b NS5A Y93H) was 7.34 nM and the EC50 [1, 6] was 8.74 nM. It also gave an EC90 [1, 6] of 37.7 nM, an EC50 ([1]; genotype 1b NS5A Y93N) of 3.82 nM and an EC90 ([1]; genotype 1b NS5A Y93N) of 13.3 nM. The EC50 [1, 7] was 27.3 nM, the EC90 [1, 7] was 98.9 nM and the “Fold resistance (EC50)” value ([1]; genotype 1b NS5A M202L) was 1 fold. For the same molecule, the “Fold resistance (EC90)” value ([1]; genotype 1b NS5A M202L) was 1 fold, the “Fold resistance (EC50)” value ([1]; genotype 1b NS5A M265V) was 1 fold and the “Fold resistance (EC90)” value ([1]; genotype 1b NS5A M265V) was 1 fold. The “Fold resistance (EC50)” value ([1]; genotype 1b NS5A P58L) was 376 fold, the “Fold resistance (EC90)” value ([1]; genotype 1b NS5A P58L) was 650 fold and the “Fold resistance (EC50)” value ([1]; genotype 1b NS5A P58S) was 25 fold. The “Fold resistance (EC90)” value ([1]; genotype 1b NS5A P58S) was 15 fold, the “Fold resistance (EC50)” value ([1]; genotype 1b NS5A P58T) was 162 fold and the “Fold resistance (EC90)” value ([1]; genotype 1b NS5A P58T) was 310 fold. For the same molecule, the “Fold resistance (EC50)” value ([1]; genotype 1b NS5A Parental) was 1 fold, the “Fold resistance (EC90)” value ([1]; genotype 1b NS5A Parental) was 1 fold and the “Fold resistance (EC50)” value ([1]; genotype 1b NS5A V153M) was 1 fold. For the same molecule, the “Fold resistance (EC90)” value ([1]; genotype 1b NS5A V153M) was 1 fold, the “Fold resistance (EC50)” value [1, 5] was 1 fold and the “Fold resistance (EC90)” value [1, 5] was 1 fold. The “Fold resistance (EC50)” value ([1]; genotype 1b NS5A Y93C) was 52 fold, the “Fold resistance (EC90)” value ([1]; genotype 1b NS5A Y93C) was 42 fold and the “Fold resistance (EC50)” value ([1]; genotype 1b NS5A Y93H) was 939 fold. For the same molecule, the “Fold resistance (EC90)” value ([1]; genotype 1b NS5A Y93H) was 1,747 fold, the “Fold resistance (EC50)” value [1, 6] was 5,824 fold and the “Fold resistance (EC90)” value [1, 6] was 8,979 fold. For the same molecule, the “Fold resistance (EC50)” value ([1]; genotype 1b NS5A Y93N) was 2,547 fold, the “Fold resistance (EC90)” value ([1]; genotype 1b NS5A Y93N) was 3,168 fold and the “Fold resistance (EC90)” value [1, 7] was 23,550 fold. The “effect on the Rluc signals” value ([2]; 4 and 8 hours posttransfection (viral translation)) was “minimal effect”, the “effect on the Rluc signals” value ([2]; 24, 48, and 72 hours posttransfection (RNA replication), P<0.001) was “significantly reduced” and the cytotoxicity (HCV genotype 1b replicon) was “No cytotoxicity was observed”. For the same molecule, the Selective index ([3]; CC50/EC50, Infectious HCV, Genotype 2a, JFH1) was >720,461, the EC50 ([3]; Hepatitis C virus, read-out: Luciferase activity assay EC50) was 0.0183 nM and the EC90 ([3]; Hepatitis C virus, read-out: Luciferase activity assay EC90) was 0.258 ± 0.0502 nM. It also gave an EC50 ([4]; genotype 2a NS5A P58L) of 53 nM, an EC90 ([4]; genotype 2a NS5A P58L) of 89.3 nM and an EC50 ([4]; genotype 2a NS5A Parental) of 0.25 ± 0.032 nM. It also gave an EC90 ([4]; genotype 2a NS5A Parental) of 0.592 ± 0.07 nM, an EC50 ([4]; genotype 2a NS5A T24A) of 16.2 nM and an EC90 ([4]; genotype 2a NS5A T24A) of 63.5 nM. It also gave an EC50 ([4]; genotype 2a NS5A Y93H) of 760 nM, an EC90 ([4]; genotype 2a NS5A Y93H) greater than 5000 nM and an EC50 ([4]; genotype 2a NS5A Y93N) of 51.8 nM. For the same molecule, the EC90 ([4]; genotype 2a NS5A Y93N) was 85.2 nM, the “Fold resistance (EC50)” value ([4]; genotype 2a NS5A P58L) was 212 fold and the “Fold resistance (EC90)” value ([4]; genotype 2a NS5A P58L) was 151 fold. The “Fold resistance (EC50)” value ([4]; genotype 2a NS5A Parental) was 1 fold, the “Fold resistance (EC90)” value ([4]; genotype 2a NS5A Parental) was 1 fold and the “Fold resistance (EC50)” value ([4]; genotype 2a NS5A T24A) was 65 fold. For the same molecule, the “Fold resistance (EC90)” value ([4]; genotype 2a NS5A T24A) was 107 fold, the “Fold resistance (EC50)” value ([4]; genotype 2a NS5A Y93H) was 3,041 fold and the “Fold resistance (EC90)” value ([4]; genotype 2a NS5A Y93H) was >8,446 fold. For the same molecule, the “Fold resistance (EC50)” value ([4]; genotype 2a NS5A Y93N) was 207 fold and the “Fold resistance (EC90)” value ([4]; genotype 2a NS5A Y93N) was 144 fold.
